What was measured:
[1] = target: T1, human histamine H3 receptor (Homo sapiens, UniProt Q9Y5N1); assay: Calcium mobilization assay (FLIPR), inhibition of (R)-α-methylhistamine-stimulated Ca2+ flux in RAGE-H3 cells; type: cell-based; settings: determined using FLIPR
T1 construct: expressed in transfected cells; host or cells: HT1080-Gqαi5 cells (human), pFG8-HH3 RAGE vector integrated; methotrexate-amplified clone RAGE-H3
Experimental: The human histamine H3 receptor was stably expressed in HT1080 cells containing the chimeric G-protein, Gq[…]i5 (Coward et al., Anal Biochem 1999; 270:242-8). HT1080-Gqαi5 cells were grown in alpha-modified MEM containing 10% fetal bovine serum and 7 μg/ml blasticidin at 37° C. in 5% CO2/95% atmosphere. Cells (4.8×10^9) were irradiated with 50 rads from a ^137Cs source and the pFG8-HH3 RAGE (Random Activation of Gene Expression; see Harrington et al., Nature Biotechnology. 2001; 19:440-45) vector was subsequently integrated into the cells via electroporation (250V, 600 μF, 50Ω). The RAGE vector pFG8-HH3 contained cDNA sequence coding for the first exon (83 amino acids) of human H3 receptor. After electroporation, cells were plated in T75 flasks and grown in alpha-modified MEM. The culture medium was replaced 48 hours after electroporation with alpha-modified MEM, 10% fetal bovine serum, 500 μg/ml hygromycin B and 3 μg/ml puromycin. Medium was replaced every four days during cell expansion. To identify RAGE activated cells expressing the H3 receptor, pools of approximately 10,000 colonies (5×10^7-1.5×10^8 cells total) were screened by PCR for the desired gene product (using primers specific to the RAGE vector and exon 2 of the H3 receptor). […] Positive 100 cells/well pools were identified by PCR, confirmed by sequencing, and subsequently subcloned to 0.8 cells/well. Once clones expressing the H3 receptor were identified by PCR analysis, assays (FLIPR or radioligand binding) were performed to confirm that the activated gene produced functional protein. The protein expression in the initial clones obtained from the RAGE library was increased by growth in the presence of methotrexate. Since the integrated RAGE vector contains the DHFR gene, such treatment selects for cells that have amplified the genetic locus containing the RAGE insert. Subclones obtained after methotrexate amplification were tested for functional activity in FLIPR assays to identify the clone that was most suitable for HTS. The final HT1080-Gqαi5 RAGE clone (RAGE-H3) expressing the human histamine H3 receptor was grown in alpha-modified MEM containing 10% fetal bovine serum, 3 μg/ml puromycin, 500 μg/ml hygromycin B, 3.2 μM methotrexate at 37° C. in 5% CO2/95% atmosphere.
RAGE-H3 or HT1080-mH3 cells were seeded in black 384-well plates and incubated overnight at 37° C. in a 5% CO2/95% atmosphere. After removing medium, cells were treated with CsCl Ringer's buffer (136 mM CsCl, 5.4 mM KCl, 5.5 mM D-Glucose, 20 mM Hepes, pH 7.4, 2.1 mM MgCl2, 1.2 mM CaCl2) containing the Calcium 3 dye (Molecular Device, CA) and probenecid (3.75 mM) for 60 minutes, according to manufacture's instruction. Compounds were diluted in CsCl Ringer's buffer containing 0.2% bovine serum albumin and 1.0% DMSO. The dose response of (R)-α-methylhistamine-stimulated Ca^2+ flux was measured on a Fluorometric Imaging Plate Reader (FLIPR, Molecular Devices, CA) and the concentration of (R)-α-methylhistamine to stimulate 75% of maximum response was used to test the inhibitory effect of compounds.
All data were analyzed by nonlinear least squares curve fitting using Prism 4.0 software. The KD and Bmax for [^125I]iodoproxyfan were derived from the equation RL=RtL/(KD+L), where RL is concentration of receptor-bound ligand at equilibrium, L is the free ligand concentration, and Rt is the total receptor concentration (i.e., Bmax). For competition binding experiments, IC50 values (the concentration of compound producing 50% inhibition of specific binding) and Hill Coefficients (nH) were derived from fitting the data to a 4-parameter logistic equation. Apparent Ki values were calculated using the Cheng-Prussof equation of Ki=IC50/(1+(L/KD)), where L is the ligand concentration. […]

H3 receptor [2] = settings: cat, cited from earlier work
H3 receptor [3] = target: T2, H3 receptor (Rattus norvegicus, UniProt Q9QYN8); settings: rats; cited from earlier work
T2 construct: host or cells: living rats

[4] = cited from earlier work
H3 receptor [5] = settings: in vivo studies; cited from earlier work

T1 sequence (Q9Y5N1 whole entry): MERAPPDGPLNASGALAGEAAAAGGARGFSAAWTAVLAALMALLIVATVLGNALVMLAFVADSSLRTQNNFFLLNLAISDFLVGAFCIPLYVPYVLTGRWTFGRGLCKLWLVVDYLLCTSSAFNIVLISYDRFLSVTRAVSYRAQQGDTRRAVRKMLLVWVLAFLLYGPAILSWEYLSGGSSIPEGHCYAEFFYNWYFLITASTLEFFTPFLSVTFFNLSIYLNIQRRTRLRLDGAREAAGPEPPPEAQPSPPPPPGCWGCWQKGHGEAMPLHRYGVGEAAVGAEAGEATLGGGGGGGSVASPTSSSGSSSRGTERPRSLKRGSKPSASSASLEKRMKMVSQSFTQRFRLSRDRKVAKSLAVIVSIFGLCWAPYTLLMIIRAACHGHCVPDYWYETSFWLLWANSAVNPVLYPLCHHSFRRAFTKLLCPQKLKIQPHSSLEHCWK
T2 sequence (Q9QYN8 whole entry): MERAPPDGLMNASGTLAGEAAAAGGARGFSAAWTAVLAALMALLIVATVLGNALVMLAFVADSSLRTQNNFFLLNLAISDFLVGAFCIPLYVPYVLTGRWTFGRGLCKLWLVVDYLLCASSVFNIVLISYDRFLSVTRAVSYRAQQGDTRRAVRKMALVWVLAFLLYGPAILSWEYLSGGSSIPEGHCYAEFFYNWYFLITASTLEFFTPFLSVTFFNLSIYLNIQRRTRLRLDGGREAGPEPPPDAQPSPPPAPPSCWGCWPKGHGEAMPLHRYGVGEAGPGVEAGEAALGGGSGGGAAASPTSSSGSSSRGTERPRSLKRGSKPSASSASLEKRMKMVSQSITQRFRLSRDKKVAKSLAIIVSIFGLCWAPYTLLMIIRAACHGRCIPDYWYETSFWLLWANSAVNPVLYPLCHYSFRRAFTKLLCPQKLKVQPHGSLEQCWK

SMILES | IC50 [1] [µM] | further results
COc1cc(-n2c(C)cc3ccccc32)ccc1OCCCN1CCCC1 [Example 14, 1-[3-Methoxy-4-(3-pyrrolidin-1-ylpropoxy)phenyl]-2-methyl-1H-indole] | < 1 | 
c1ccc2c(c1)ccn2-c1ccc(OCCCN2CCCC2)cc1 [Example 4, 1-[4-(3-Pyrrolidin-1-ylpropoxy)phenyl]-1H-indole] | < 0.1 | 
C[C@@H](N)Cc1cnc[nH]1 [RAMHA] |  | deep slow wave sleep (H3 receptor [2]; oral administration): significant increase
c1ccc2c(c1)cc(C1CC1)n2-c1ccc(OCCCN2CCCC2)cc1 [Example 37, 2-Cyclopropyl-1-[4-(3-pyrrolidin-1-ylpropoxy)phenyl]-1H-indole] | < 0.1 | 
Cc1ccc2c(ccn2-c2ccc(OCCCN3CCCC3)cc2)c1 [Example 6, 5-Methyl-1-[4-(3-pyrrolidin-1-ylpropoxy)phenyl]-1H-indole] | < 1 | 
Clc1ccc2c(ccn2-c2ccc(OCCCN3CCCC3)cc2)c1 [Example 10, 5-Chloro-1-[4-(3-pyrrolidin-1-ylpropoxy)phenyl]-1H-indole] | < 1 | 
COc1ccc2c(c1)cc(C)n2-c1ccc(C#CCCN2CCCC2)cc1 [Example 17, 5-Methoxy-2-methyl-1-[4-(4-pyrrolidin-1-ylbut-1-ynyl)phenyl]-1H-indole] | < 0.1 | 
Brc1ccc2c(ccn2-c2ccc(OCCCN3CCCC3)cc2)c1 [Example 7, 5-Bromo-1-[4-(3-pyrrolidin-1-ylpropoxy)phenyl]-1H-indole] | < 1 | 
COc1ccc2c(c1)cc(C)n2-c1ccc(OCCCN2CCCC2)cc1 [Example 5, 5-Methoxy-2-methyl-1-[4-(3-pyrrolidin-1-ylpropoxy)phenyl]-1H-indole] | < 0.1 | 
COc1ccc2c(ccn2-c2ccc(OCCCN3CCCC3)cc2)c1 [Example 9, 5-Methoxy-1-[4-(3-pyrrolidin-1-ylpropoxy)phenyl]-1H-indole] | < 1 | 
S=C(NC1CCCCC1)N1CCC(c2cnc[nH]2)CC1 [thioperamide] |  | wakefulness (H3 receptor [2]): enhanced wakefulness in a dose-dependent fashion; slow-wave and REM sleep (H3 receptor [3]): decrease; wakefulness (H3 receptor [3]): increase wakefulness; durations of every convulsive phase ([4]; after electrically-induced convulsions): significantly and dose-dependently decrease; electroconvulsive threshold ([4]; in vivo): increase; synthesis and release of histamine (H3 receptor [5]): increase
Clc1cccc2c1ccn2-c1ccc(OCCCN2CCCC2)cc1 [Example 8, 4-Chloro-1-[4-(3-pyrrolidin-1-ylpropoxy)phenyl]-1H-indole] | < 1 | 
Cc1cc2ccccc2n1-c1ccc(OCCCN2CCCC2)c(Cl)c1 [Example 15, 1-[3-Chloro-4-(3-pyrrolidin-1-ylpropoxy)phenyl]-2-methyl-1H-indole] | < 1 | 

Source: patent publication US8129424B2, “Indole derivatives as histamine 3 receptor inhibitors for the treatment of cognitive and sleep disorders, obesity and other CNS disorders” (Athersys, Inc., priority 2005, dated 2012)
